Data published in article PMC6629894, “Ruthenium Complexes Containing Heterocyclic Thioamidates Trigger Caspase-Mediated Apoptosis Through MAPK Signaling in Human Hepatocellular Carcinoma Cells” (Frontiers in Oncology, 2019).

Legend:
calf thymus DNA (ctDNA) = experiment: DNA interaction assay (ethidium bromide displacement); type: binding
Method: DNA interaction was measured in a cell-free system as previously described ([22]). In this assay, the ability of the complexes to translocate ethidium bromide, a DNA intercalator, from calf thymus DNA (ctDNA, Sigma-Aldrich Co.) was examined. […] […] After a 15 min incubation at room temperature, fluorescence was measured using the excitation and emission wavelengths of 320 and 600 nm, respectively, using a Spectramax Microplate Reader (Molecular Devices).

[1] = test system: HCT116 (human colon carcinoma); experiment: Alamar blue cytotoxicity assay, 72 h; type: cell-based
Summary of the method: (§1)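 Alamar blue assay in RPMI 1640/10% FBS: eight complex concentrations (0.19–25 μg/mL, 0.5% DMSO) for 72 h, resazurin during last 4 h, absorbance 570 and 600 nm.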

[2] = test system: HL-60 (human promyelocytic leukemia); experiment: Alamar blue cytotoxicity assay, 72 h; type: cell-based
Summary of the method: as §1

[3] = test system: MCF-7 (human breast carcinoma); experiment: Alamar blue cytotoxicity assay, 72 h; type: cell-based
Summary of the method: as §1

[4] = test system: HSC-3 (human oral squamous cell carcinoma); experiment: Alamar blue cytotoxicity assay, 72 h; type: cell-based
Summary of the method: as §1

[5] = test system: SCC-4 (human oral squamous cell carcinoma); experiment: Alamar blue cytotoxicity assay, 72 h; type: cell-based
Summary of the method: as §1

HepG2 cells [6] = experiment: Cell morphology: May-Grunwald-Giemsa staining and light scattering; type: cell-based, human; conditions: 24 and 48 h
Method: (§2) For all subsequent in vitro experiments, 2 mL of a suspension of HepG2 cells were seeded (7 × 10^4 cells/mL) and incubated in a 24-well plate overnight to allow the cells to adhere to the plate surface.
To evaluate alterations in the morphology, cells were cultured on a coverslip and stained with May-Grunwald-Giemsa. Morphological changes were examined by light microscopy (Olympus BX41) using Image-Pro software (Media Cybernetics).

HepG2 cells [7] = experiment: DNA content: internucleosomal DNA fragmentation and cell cycle distribution by flow cytometry; type: cell-based, human; conditions: 24 and 48 h
Method: as §2
In this assay, cells were harvested in a permeabilization solution containing 0.1% Triton X-100, 2 μg/mL propidium iodide, 0.1% sodium citrate and 100 μg/mL RNAse (all from Sigma-Aldrich Co.) and incubated in the dark for 15 min at room temperature.
(§3) For all flow cytometry analyses, at least 10^4 events were recorded per sample using a BD LSRFortessa cytometer, BD FACSDiva Software (BD Biosciences) and FlowJo Software 10 (FlowJo Lcc; Ashland, OR, USA). Cellular debris was omitted from the analysis.

[8] = test system: cancer cells with different histological types; experiment: Cytotoxicity, summary over the panel of cancer cells; type: cell-based; conditions: read-out: IC50 values against cancer cells (summary)
Method: Cytotoxicity was measured colorimetrically using an Alamar blue method that was performed as previously described ([20], [21]). Cells were seeded in 96-well plates for all experiments (7 × 10^4 cells/mL for adherent cells or 3 × 10^5 cells/mL for suspension cells in 100 μL of medium) and incubated overnight at 37°C with 5% CO2 to allow for adherence. The complexes were dissolved in 0.5% dimethyl sulfoxide (DMSO, Vetec Química Fina) at eight different concentrations from 0.19 to 25 μg/mL and were added to each well and incubated for 72 h. The negative control was treated with the vehicle (0.5% DMSO) that was used to solubilize and dilute the complexes. […] Four (for cell lines) or 24 h (for PBMCs) before the end of incubation, 20 μL of a stock solution (0.312 mg/mL) of resazurin (Sigma-Aldrich Co.) was added to each well. Absorbance was measured at 570 and 600 nm using a SpectraMax 190 Microplate Reader (Molecular Devices, Sunnyvale, CA, USA).

human topoisomerase IB = test system: human topoisomerase IB; set-up: method as in PMID 26795676; conditions: ref [18], [19]; cited from earlier work
ERK1/2 (pT202/pY204) = experiment: Phosflow analysis of phosphorylated MAPK; type: cell-based, human; conditions: HepG2, 10 μM, 15 min
Method: (§4) Phosphorylated extracellular signal-regulated kinase (ERK), JNK/SAPK and p38 MAPK were quantified by flow cytometry as previously described ([26]). The cells were collected and resuspended in 0.5–1 mL of 4% formaldehyde and fixed for 10 min at 37°C. Then, the tubes were chilled on ice for 1 min. The cells were permeabilized by slowly adding ice-cold 100% methanol to the cooled cells while gently vortexing to a final concentration of 90% methanol and incubating for 30 min on ice. After washing with incubation buffer (0.5% bovine serum albumin in PBS), PE mouse anti-JNK/SAPK (pT183/pY185) (ID 562480), PE mouse anti-p38 MAPK (pT180/pY182) (ID 612565), PE mouse anti-ERK1/2 (pT202/pY204) (ID 612566) or PE mouse IgG1,κ isotype control (ID 555749) antibodies, all from BD Biosciences, were added and incubated for 1 h at room temperature. Finally, the cells were washed with PBS, and the cell fluorescence was measured by flow cytometry.
as §3

p38 MAPK (pT180/pY182) = experiment: Phosflow analysis of phosphorylated MAPK; type: cell-based, human; conditions: HepG2, 10 μM
Method: as §4, §3

JNK/SAPK (pT183/pY185) = experiment: Phosflow analysis of phosphorylated MAPK; type: cell-based, human; conditions: HepG2, 10 μM
Method: as §4, §3

COc1cccc2c1C(=O)c1c(O)c3c(c(O)c1C2=O)C[C@@](O)(C(=O)CO)C[C@@H]3O[C@H]1C[C@H](N)[C@H](O)[C@H](C)O1 [Doxorubicin, reference compound]
reduction of the fluorescence intensity (ethidium bromide-ctDNA) vs negative control (calf thymus DNA (ctDNA); 20 μM): 89.0% | Selectivity index (SI = IC50 [noncancerous cells]/IC50 [cancer cells]) ([1]; MRC-5 vs HCT116): 1.3 | Selectivity index (SI = IC50 [noncancerous cells]/IC50 [cancer cells]) ([1]; PBMCs vs HCT116): 8.3 | Selectivity index (SI = IC50 [noncancerous cells]/IC50 [cancer cells]) ([2]; MRC-5 vs HL-60): 2.0 | Selectivity index (SI = IC50 [noncancerous cells]/IC50 [cancer cells]) ([2]; PBMCs vs HL-60): 12.5 | Selectivity index (SI = IC50 [noncancerous cells]/IC50 [cancer cells]) ([3]; MRC-5 vs MCF-7): 1.0 | Selectivity index (SI = IC50 [noncancerous cells]/IC50 [cancer cells]) ([3]; PBMCs vs MCF-7): 6.3 | Selectivity index (SI = IC50 [noncancerous cells]/IC50 [cancer cells]) ([4]; MRC-5 vs HSC-3): 0.8 | Selectivity index (SI = IC50 [noncancerous cells]/IC50 [cancer cells]) ([4]; PBMCs vs HSC-3): 5.0 | IC50 ([5]; Homo sapiens, SCC-4, 72 h, read-out: IC50 and 95% CI): 4 µM | Selectivity index (SI = IC50 [noncancerous cells]/IC50 [cancer cells]) ([5]; MRC-5 vs SCC-4): 0.1 | Selectivity index (SI = IC50 [noncancerous cells]/IC50 [cancer cells]) ([5]; PBMCs vs SCC-4): 0.6 | cell morphology (HepG2 cells [6]): apoptosis-related morphological alterations | cell cycle distribution (HepG2 cells [7]; 2 μM): cell cycle arrest at the G2/M phase | internucleosomal DNA fragmentation (sub-G0/G1) (HepG2 cells [7]): DNA fragmentation

Cn1ccnc1[S-].F[P-](F)(F)(F)(F)F.[Ru+2].c1ccc(-c2ccccn2)nc1.c1ccc(P(CCCCP(c2ccccc2)c2ccccc2)c2ccccc2)cc1 [Complex 1, [Ru(mmi)(bipy)(dppb)]PF6]
IC50 [8]: < 10 µM | supercoiled DNA relaxation mediated by human topoisomerase IB (human topoisomerase IB): inhibit the supercoiled DNA relaxation | reduction of the fluorescence intensity (ethidium bromide-ctDNA) vs negative control (calf thymus DNA (ctDNA); 5 μM): 41.6% | reduction of the fluorescence intensity (ethidium bromide-ctDNA) vs negative control (calf thymus DNA (ctDNA); 10 μM): 34.0% | reduction of the fluorescence intensity (ethidium bromide-ctDNA) vs negative control (calf thymus DNA (ctDNA); 20 μM): 30.4% | phosphorylation of ERK1/2 (ERK1/2 (pT202/pY204)): induced the phosphorylation of ERK1/2 | phosphorylation of p38 MAPK (p38 MAPK (pT180/pY182)): no significant increase | phosphorylation of JNK/SAPK (JNK/SAPK (pT183/pY185)): no significant increase

F[P-](F)(F)(F)(F)F.[Ru+2].[S-]C1=NCCS1.c1ccc(-c2ccccn2)nc1.c1ccc(P(CCCCP(c2ccccc2)c2ccccc2)c2ccccc2)cc1 [Complex 2, [Ru(tzdt)(bipy)(dppb)]PF6]
IC50 [8]: < 10 µM | supercoiled DNA relaxation mediated by human topoisomerase IB (human topoisomerase IB): inhibit the supercoiled DNA relaxation | reduction of the fluorescence intensity (ethidium bromide-ctDNA) vs negative control (calf thymus DNA (ctDNA); 5 μM): 36.9% | reduction of the fluorescence intensity (ethidium bromide-ctDNA) vs negative control (calf thymus DNA (ctDNA); 10 μM): 42.9% | reduction of the fluorescence intensity (ethidium bromide-ctDNA) vs negative control (calf thymus DNA (ctDNA); 20 μM): 45.4% | Selectivity index (SI = IC50 [noncancerous cells]/IC50 [cancer cells]) ([1]; MRC-5 vs HCT116): 0.6 | Selectivity index (SI = IC50 [noncancerous cells]/IC50 [cancer cells]) ([1]; PBMCs vs HCT116): 1.0 | Selectivity index (SI = IC50 [noncancerous cells]/IC50 [cancer cells]) ([2]; MRC-5 vs HL-60): 1.5 | Selectivity index (SI = IC50 [noncancerous cells]/IC50 [cancer cells]) ([2]; PBMCs vs HL-60): 2.4 | Selectivity index (SI = IC50 [noncancerous cells]/IC50 [cancer cells]) ([3]; MRC-5 vs MCF-7): 0.2 | Selectivity index (SI = IC50 [noncancerous cells]/IC50 [cancer cells]) ([3]; PBMCs vs MCF-7): 0.4 | IC50 ([3]; read-out: IC50 and 95% CI, MCF-7, 72 h): 7.3 µM | Selectivity index (SI = IC50 [noncancerous cells]/IC50 [cancer cells]) ([4]; MRC-5 vs HSC-3): 0.7 | Selectivity index (SI = IC50 [noncancerous cells]/IC50 [cancer cells]) ([4]; PBMCs vs HSC-3): 1.2 | Selectivity index (SI = IC50 [noncancerous cells]/IC50 [cancer cells]) ([5]; MRC-5 vs SCC-4): 0.4 | Selectivity index (SI = IC50 [noncancerous cells]/IC50 [cancer cells]) ([5]; PBMCs vs SCC-4): 0.7
